# Where no end group is shown, it is not given here.
# Experiments:
# Type in all cases: cell-based
# βTC-3 cells [1] = assay: Immunocytochemistry and fluorescence studies of oximes; settings: fluorescence studies
# Protocol: Single phages isolated according to the enrichment scheme above were amplified. The phage peptides and one of oximes 1–6 were added and incubated for 24 hours with cells in culture medium. Medium was then washed off and cells fixed in cold methanol-acetone (1:1) for 5 minutes. Antibodies directed against the phage capsid or against biotin (peptides) were used with a fluorescein-conjugated (phage) or Texas Red labeled (peptides) secondary antibody. Classical fluorescence microscopic studies and confocal microscopic assays were performed.
# Oximes 1–3 were first tested for their entry into βTC-3 cells. […] The superiority of oxime 3 may be due to the flexibility of the PEG spacer, which increases binding to the receptors on the cells.
# Oximes 4–6, which are similar to oxime 3, were then synthesized and assayed for binding avidity and entry efficiency.
# βTC-3 cell line = assay: Panning of phage display library on βTC-3 cells, occurrence of recovered phages
# Protocol: (§1) A library of 3×10^8 independent phages displaying random 15-mer epitopes at the surface of the capsids was generated using standard procedures (e.g., in T7 415 or the T7 413b phage, Novagen). See Smith and Scott, Methods Enzymol. 217:228 (1993). Phages were amplified then purified by polyethylene glycol (PEG) precipitation and finally resuspended at a concentration of 10^10 infective particles per μl in Tris-EDTA buffer (10:1 mM, TE) as described (by Smith and Scott, supra). Phages (10^12) were added to cells in culture medium for 1 to 24 hours. Longer incubation times were preferred to favor isolation of phages that escaped proteolytic degradation in endocytotic vesicles. Following binding and internalization, cells were washed and non-internalized phages were destroyed by digestion with subtilisin (3 mg/ml) (44). Following extensive washing, internalized phages were then recovered by lysing cells in a buffer containing 2% deoxycholate, 10 mM Tris-HC1 and 2mM EDTA, pH 8.0. Recovered phages were finally amplified in E. coli cells (XL-1-Blue) and purified as described above. This preparation of selected phages was then used for a second round of panning. Three to five sequential rounds were performed to obtain enrichment of specific phage-bearing peptide sequences.
# The pancreatic β-cell line βTC-3 was panned with the phage display library mentioned herein. […] Panning experiments using βTC-3 cells were performed with 10^9 phages used at each step of the enrichment procedure. The number of phages recovered at 0 ° C.
# The occurrence of phages recovered after three steps of panning in the βTC-3 cell line is seen in Table 2.
# βTC-3 cells [2] = assay: Titration of phage P1 incubated with βTC-3 cells
# Protocol: as §1
# The ratio of input/recovered phages is also shown.
# A549 = assay: Specificity of phage uptake, internalized and recovered phages; settings: 10^8 phages incubated 16 hours
# Protocol: as §1
# (§2) Determination of the specificity of uptake was performed by titrating the number of recovered phages in 5 different cell lines.
# HeLa = assay: as above; settings: 10^8 phages incubated 16 hours
# Protocol: as §1, §2
# HepG2 = assay: as above; settings: 10^8 phages incubated 16 hours
# Protocol: as §1, §2
# WiDr = assay: as above; settings: 10^8 phages incubated 16 hours
# Protocol: as §1, §2
# βTC-3 = assay: as above
# Protocol: as §1, §2
# 5 different cell lines = assay: Specificity of phage uptake across the cell lines; settings: βTC-3 vs HeLa, WiDr, HepG2, A549
# Protocol: as §1, with “sequences. […]” for “sequences.”
substance,measurement,setting,value
"Oxime 3: tetraoxime with four copies of RRTK, two-unit PEG spacer between peptide and core 1, FITC reporter (RRTK-OH; not fully specified (N-terminus, bridges); also: tetraoxime: four RRTK copies joined by thioether to Cys of branched trilysine core 1, core carries aminooxyacetyl-Lys(FITC) via oxime bond)",binding to receptors on the cell surface,βTC-3 cells [1],clearly bound to the receptors on the surface of βTC-3 cells
RRPK [Oxime P66],occurrence of phages recovered after three steps of panning,βTC-3 cell line,5.5%
RRTK [Oxime P1],occurrence of phages recovered after three steps of panning,βTC-3 cell line,61%
same,% Recovered,βTC-3 cells [2]; incubation 1 h,0.01%
same,initial phage input recovered,βTC-3 cells [2]; titration experiments,≤ 10%
same,Phages recovered,A549,10^3
same,Phages recovered,HeLa,<1 × 10^2
same,Phages recovered,HepG2,<10
same,Phages recovered,WiDr,2 × 10^2
same,efficiency of internalization,"βTC-3; phage experiments, βTC-3 cells",low
same,uptake by cells,"βTC-3; phage experiments, βTC-3 cells",taken up specifically by βTC-3 cells via receptor-mediated endocytosis
same,Phages recovered,"βTC-3; βTC-3, 10^8 phages incubated 16 hours",1 × 10^7
same,uptake by βTC-3 cells relative to any other cell line tested,5 different cell lines,"10,000 to 1,000,000 fold"
RKLR [Oxime P6],occurrence of phages recovered after three steps of panning,βTC-3 cell line,17%

# — patent US7033597B2, “Intracellular delivery of biological effectors” (Université de Lausanne, priority 2000, dated 2006)
